Test results taken from patent publication US10688093B2, “Methods, compositions, and uses of novel Fyn kinase inhibitors” (priority 2015, dated 2020).

Target: full-length recombinant human FYN A (Homo sapiens (Human), UniProt P06241)
Experiment: ADP-Glo Kinase Assay of FYN kinase inhibition
Format: biochemical
Outline: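 GST-tagged full-length FYN A (baculovirus, Sf9) at 3 pg preincubated 30 min RT with compound (10-point 3-fold series from 10 μM) in Tris pH 7.5/MgCl2 buffer. 12-mer tyrosine peptide plus 12.5 pmol ATP added, 90 min RT; ADP measured by ADP-Glo luminescence, IC50 from dose-response.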

[1] = secondary screen, re-synthesized and expanded compounds
[2] = primary screen, initial compounds

Sequence of full-length recombinant human FYN A (P06241 whole entry): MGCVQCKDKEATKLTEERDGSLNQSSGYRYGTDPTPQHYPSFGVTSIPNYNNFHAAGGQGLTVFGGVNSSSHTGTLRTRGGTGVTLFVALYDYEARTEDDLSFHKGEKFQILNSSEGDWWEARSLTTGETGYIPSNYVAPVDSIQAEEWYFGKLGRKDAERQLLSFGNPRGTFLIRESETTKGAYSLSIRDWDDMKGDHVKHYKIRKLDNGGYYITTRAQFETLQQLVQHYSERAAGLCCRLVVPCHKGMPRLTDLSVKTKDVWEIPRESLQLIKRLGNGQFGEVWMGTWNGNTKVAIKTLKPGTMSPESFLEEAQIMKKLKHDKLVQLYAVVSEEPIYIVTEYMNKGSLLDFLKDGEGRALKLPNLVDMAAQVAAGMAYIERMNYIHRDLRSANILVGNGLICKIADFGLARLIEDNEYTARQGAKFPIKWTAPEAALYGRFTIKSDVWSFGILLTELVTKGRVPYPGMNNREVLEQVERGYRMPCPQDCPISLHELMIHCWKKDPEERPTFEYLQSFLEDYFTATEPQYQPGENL

Row | IC50 [1] [nM] | IC50 [2] [nM] | SMILES
1 |  | 2700 | Oc1ccc(-c2cn3c(-c4ccsc4)cnc3cn2)cc1 [Compound 199, 4-[3-(3-thienyl)imidazo [1,2-a]pyrazin-6-yl]phenol]
2 |  | 6550 | Oc1cccc(-c2cnc3cnc(-c4ccccc4)cn23)c1 [Compound 204, 3-(6-phenylimidazo [1,2-a]pyrazin-3-yl)phenol]
3 |  | 1580 | NC(=O)c1cccc(-c2cn3c(-c4cccc(O)c4)cnc3cn2)c1 [Compound 205, 3-[3-(3-hydroxyphenyl)imidazo[1,2-a]pyrazin-6-yl]benzamide]
4 |  | 2730 | Oc1ccc(-c2cnc3cnc(-c4cccnc4)cn23)cc1 [Compound 206, 4-[6-(3-pyridyl)imidazo [1,2-a]pyrazin-3-yl]phenol]
5 |  | 4720 | OCc1ccc(-c2cn3c(-c4ccc(Oc5ccccc5)cc4)cnc3cn2)cc1 [Compound 207]
6 |  | 6380 | Oc1ccc(-c2cnc3cnc(-c4ccc(Cl)cc4)cn23)cc1 [Compound 208, 4-[6-(4-chlorophenyl)imidazo[1,2-a]pyrazin-3-yl]phenol]
7 |  | 1930 | Cn1cc(-c2cn3c(-c4ccc(Oc5ccccc5)cc4)cnc3cn2)cn1 [Compound 210, 6-(1-methylpyrazol-4-yl)-3-(4-phenoxyphenyl) imidazo[1,2-a]pyrazine]
8 |  | 1980 | COc1ccc(-c2cn3c(-c4ccc(O)cc4)cnc3cn2)cn1 [Compound 212, 4-[6-(6-methoxy-3-pyridyl)imidazo [1,2-a]pyrazin-3-yl]phenol]
9 |  | 3360 | OCc1ccc(-c2cn3c(-c4cccc(O)c4)cnc3cn2)cc1 [Compound 213, 3-[6-[4-(hydroxymethyl)phenyl]imidazo [1,2-a]pyrazin-3-yl]phenol]
10 |  | 1590 | Cn1cc(-c2cn3c(-c4ccc(O)cc4)cnc3cn2)cn1 [Compound 215, 4-[6-(1-methylpyrazol-4-yl)imidazo[1,2-a]pyrazin-3-yl]phenol]
11 |  | 2130 | CN1CCN(c2ccc(-c3cn4c(-c5ccc(Oc6ccccc6)cc5)cnc4cn3)cn2)CC1 [Compound 216, 6-[6-(4-methylpiperazin-1-yl)-3-pyridyl]-3-(4-phenoxyphenyl) imidazo[1,2-a]pyrazine]
12 |  | 1480 | O=C(NCCO)c1cccc(-c2cn3c(-c4ccc(Oc5ccccc5)cc4)cnc3cn2)c1 [Compound 217, N-(2-hydroxyethyl)-3-[3-(4-phenoxyphenyl)imidazo[1,2-a]pyrazin-6-yl]benzamide]
13 |  | 165 | CN(C)CCNC(=O)c1ccc(-c2cn3c(-c4ccc(Oc5ccccc5)cc4)cnc3cn2)cc1 [Compound 218, N-(2-dimethylamino-ethyl)-4-[3-(4-phenoxyphenyl)imidazo[1,2-a]pyrazin-6-yl]benzamide]
14 |  | 1720 | Nc1ccc(-c2cn3c(-c4ccc(Oc5ccccc5)cc4)cnc3cn2)cn1 [Compound 221, 5-[3-(4-phenoxyphenyl)imidazo[1,2-a]pyrazin-6-yl]pyridin-2-amine]
15 |  | 5250 | COc1ccc(-c2cnc3cnc(-c4ccc(N5CCN(C)CC5)cc4)cn23)cc1 [Compound 223, 3-(4-methoxyphenyl)-6-[4-(4-methyl-piperazin-1-yl)phenyl] imidazo[1,2-a]pyrazine]
16 |  | 2460 | Nc1ccc(-c2cn3c(-c4ccsc4)cnc3cn2)cn1 [Compound 226, 5-[3-(3-thienyl)imidazo [1,2-a]pyrazin-6-yl]pyridin-2-amine]
17 |  | 1820 | Cn1cc(-c2cnc3cnc(-c4ccccc4Oc4ccccc4)cn23)cn1 [Compound 229, 3-(1-methylpyrazol-4-yl)-6-(2-phenoxyphenyl) imidazo[1,2-a]pyrazine]
18 |  | 6690 | CCOc1cccc(-c2cn3c(-c4cccc(O)c4)cnc3cn2)c1 [Compound 232, 3-[6-(3-ethoxyphenyl)imidazo[1,2-a]pyrazin-3-yl]phenol]
19 |  | 2890 | Nc1ccc(-c2cn3c(-c4cccc(O)c4)cnc3cn2)cn1 [Compound 238, 3-[6-(6-amino-3-pyridyl)imidazo [1,2-a]pyrazin-3-yl]phenol]
20 |  | 4160 | CN(C)CCNC(=O)c1ccc(-c2cn3c(-c4ccc(Cl)cc4)cnc3cn2)cc1 [Compound 240, 4-[3-(4-chlorophenyl)imidazo[1,2-a]pyrazin-6-yl]-N-(2-dimethylamino-ethyl)benzamide]

The remaining lines, values behind:

Row | SMILES | IC50 [1] [nM] | IC50 [2] [nM]
21 | CC(=O)Nc1cccc(-c2cnc3ccc(-c4cccc(CO)c4)nn23)c1 [BF000817329, N-[3-[6-[3-(hydroxy-methyl)-phenyl]-imidazo[1,2-b]pyridazin-3-yl]phenyl]-acetamide] | 435 | 
22 | COc1cc(-c2cc(-c3ccc(N4CCOCC4)cc3)cnc2N)ccc1O [BF000817413, 4-[2-amino-5-(4-morpholino-phenyl)-3-pyridyl]-2-methoxy-phenol] | 212 | 
23 | COc1ccc(-c2cnc(N)c(-c3ccc(N4CCN(C)CC4)cc3)c2)cc1O [BF000817418, 5-[6-amino-5-[4-(4-methyl-piperazin-1-yl)phenyl]-3-pyridyl]-2-methoxy-phenol] | 9650 | 
24 | c1csc(-c2cn3c(-c4ccncc4)cnc3cn2)c1 [Compound 198, 3-(4-pyridyl)-6-(2-thienyl)imidazo [1,2-a]pyrazine] |  | 5690
25 | c1csc(-c2cn3c(-c4ccsc4)cnc3cn2)c1 [Compound 200, 6-(2-thienyl)-3-(3-thienyl)imidazo [1,2-a]pyrazine] |  | 2250
26 | CC(=O)Nc1cccc(-c2cn3c(-c4ccsc4)cnc3cn2)c1 [Compound 201, N-[3-[3-(3-thienyl)imidazo [1,2-a]pyrazin-6-yl]phenyl] acetamide] |  | 2330
27 | CS(=O)(=O)Nc1cccc(-c2cn3c(-c4ccsc4)cnc3cn2)c1 [Compound 202, N-[3-[3-(3-thienyl)imidazo [1,2-a]pyrazin-6-yl]phenyl] methane-sulfonamide] |  | 3320
28 | c1coc(-c2cn3c(-c4ccsc4)cnc3cn2)c1 [Compound 203, 6-(2-furyl)-3-(3-thienyl)imidazo [1,2-a]pyrazine] |  | 6250
29 | Oc1cccc(-c2cnc3cnc(-c4cccs4)cn23)c1 [Compound 209, 3-[6-(2-thienyl)imidazo [1,2-a]pyrazin-3-yl]phenol] |  | 2780
30 | Oc1cccc(-c2cnc3cnc(-c4ccco4)cn23)c1 [Compound 211, 3-[6-(2-furyl)imidazo [1,2-a]pyrazin-3-yl]phenol] |  | 6110
31 | Cn1cc(-c2cn3c(-c4cccc(O)c4)cnc3cn2)cn1 [Compound 214, 3-[6-(1-methylpyrazol-4-yl)imidazo[1,2-a]pyrazin-3-yl]phenol] |  | 2780
32 | O=C(NCCO)c1ccc(-c2cn3c(-c4ccc(Oc5ccccc5)cc4)cnc3cn2)cc1 [Compound 219, N-(2-hydroxyethyl)-4-[3-(4-phenoxyphenyl)imidazo[1,2-a]pyrazin-6-yl]benzamide] |  | 623
33 | CN(C)CCCNC(=O)c1ccc(-c2cn3c(-c4cccc(Cl)c4)cnc3cn2)cc1 [Compound 220, 4-[3-(3-chlorophenyl)imidazo[1,2-a]pyrazin-6-yl]-N-[3-(dimethylamino)propyl]benzamide] |  | 8430
34 | CN(C)CCCNC(=O)c1ccc(-c2cn3c(-c4ccsc4)cnc3cn2)cc1 [Compound 222, N-[3-(dimethylamino)propyl]-4-[3-(3-thienyl)imidazo [1,2-a]pyrazin-6-yl]benzamide] |  | 3870
35 | O=C(NCCO)c1cccc(-c2cn3c(-c4ccsc4)cnc3cn2)c1 [Compound 224, N-(2-hydroxyethyl)-3-[3-(3-thienyl)imidazo [1,2-a]pyrazin-6-yl]benzamide] |  | 3670
36 | CN1CCN(c2ccc(-c3cn4c(-c5ccsc5)cnc4cn3)cn2)CC1 [Compound 225, 6-[6-(4-methylpiperazin-1-yl)-3-pyridyl]-3-(3-thienyl)imidazo [1,2-a]pyrazine] |  | 7050
37 | c1cc(-c2cn3c(-c4ccsc4)cnc3cn2)cs1 [Compound 227, 3,6-bis(3-thienyl)imidazo [1,2-a]pyrazine] |  | 8470
38 | CN(C)CCNC(=O)c1ccc(-c2cn3c(-c4ccsc4)cnc3cn2)cc1 [Compound 228, N-(2-dimethylamino-ethyl)-4-[3-(3-thienyl)imidazo [1,2-a]pyrazin-6-yl]benzamide] |  | 1900
39 | CN1CCN(c2ccc(-c3cn4c(-c5cccc(O)c5)cnc4cn3)cn2)CC1 [Compound 230, 3-[6-[6-(4-methylpiperazin-1-yl)-3-pyridyl]imidazo [1,2-a]pyrazin-3-yl]phenol] |  | 3140
40 | CN(C)CCCOc1ccc(-c2cn3c(-c4ccc5c(c4)OCO5)cnc3cn2)cn1 [Compound 231, 3-[[5-[3-(1,3-benzodioxol-5-yl)imidazo[1,2-a]pyrazin-6-yl]-2-pyridyl]oxy]-N,N-dimethyl-propan-1-amine] |  | 9850
41 | CN1CCN(c2ccc(-c3cn4c(-c5ccc6c(c5)OCO6)cnc4cn3)cc2)CC1 [Compound 233, 3-(1,3-benzodioxol-5-yl)-6-[4-(4-methylpiperazin-1-yl)phenyl] imidazo[1,2-a]pyrazine] |  | 7930
42 | Oc1cccc(-c2cnc3cnc(-c4ccsc4)cn23)c1 [Compound 234, 3-[6-(3-thienyl)imidazo [1,2-a]pyrazin-3-yl]phenol] |  | 2520
43 | CN1CCN(c2ccc(-c3cn4c(-c5cccc(O)c5)cnc4cn3)cc2)CC1 [Compound 235, 3-[6-[4-(4-methyl-piperazin-1-yl)phenyl]imidazo [1,2-a]pyrazin-3-yl]phenol] |  | 1590
44 | CN(C)CCCNC(=O)c1ccc(-c2cn3c(-c4ccc(Cl)cc4)cnc3cn2)cc1 [Compound 236, 4-[3-(4-chlorophenyl)imidazo[1,2-a]pyrazin-6-yl]-N-[3-(dimethylamino)propyl]benzamide] |  | 4900
45 | CN(C)CCNC(=O)c1ccc(-c2cn3c(-c4ccc5c(c4)OCO5)cnc3cn2)cc1 [Compound 237, 4-[3-(1,3-benzodioxol-5-yl)imidazo[1,2-a]pyrazin-6-yl]-N-(2-dimethyl-aminoethyl) benzamide] |  | 3800
46 | CN(C)CCNC(=O)c1ccc(-c2cn3c(-c4cccc(O)c4)cnc3cn2)cc1 [Compound 239, N-(2-dimethylamino-ethyl)-4-[3-(3-hydroxyphenyl)imidazo[1,2-a]pyrazin-6-yl]benzamide] |  | 812
